Values joined by “and” are separate entries in the source; they are usually repeats but may differ in a detail not shown here. Equal entries are not always repeated. Where two headings read alike, the source gives them in different places. Each block holds one compound with its values, some of them ahead of it.
Tests used:
[1] = biological target: human TTR (wild type, from human plasma) (Homo sapiens (Human), UniProt P02766); experiment: Isothermal titration calorimetry (ITC) of ligands against TTR; format: binding; conditions: 5 versus 4
Method: Calorimetric titrations were carried out on a VP-ITC calorimeter (MicroCal, Northhampton, Mass.). […] Prior to each titration, all samples were degassed for 10 minutes. The initial injection of 3.0 μL was followed by 30 injections of 8.0 μL each (25° C.) to the point that TTR was fully saturated with ligand. Integration of the thermogram after subtraction of blanks yielded a binding isotherm that was analyzed with MicroCal Origin 5.0 software.

[2] = tested on: WT TTR cytotoxicity in IMR-32 neuroblastoma cells; experiment: Inhibition of WT TTR-induced cytotoxicity, resazurin reduction; conditions: TTR and ligand 8 μM, 24 h
[3] = tested on: V1221 TTR cytotoxicity in AC16 cardiac cells; experiment: Inhibition of V1221 TTR-induced cytotoxicity, resazurin reduction; conditions: TTR and ligand 8 μM, 24 h
WT TTR = WT TTR (Homo sapiens (Human), UniProt P02766); experiment: Acid-mediated fibril formation (turbidity) assay for TTR amyloidogenesis
TTR [4] = biological target: T1, TTR (Homo sapiens (Human), UniProt P02766); experiment: Fluorescence polarization displacement of probe 5 from TTR; conditions: probe 5 100 nM, TTR 200 nM
TTR [5] = biological target: T1, TTR; experiment: FP saturation binding experiment; conditions: FITC alone
Method: The binding of probe 5 for TTR was evaluated as follows. […] The samples were allowed to equilibrate by agitation for 20 min at room temperature. Fluorescence polarization (excitation λ 485 nm, emission λ 525 nm, Cutoff λ 515 nm) measurements were taken using SpectraMax M5 Microplate Reader (Molecular Devices). […] Nonspecific FP, produced by the free fluorescent probe 5 as well as by binding of 5 to the plate, was equal to 70±10 mP.

[6] = biological target: wild type biotinylated TTR (Homo sapiens (Human), UniProt P02766); experiment: Surface plasmon resonance on immobilized biotinylated TTR; format: binding; conditions: SPR
Method: To an ice-cold solution of TTR (20 μM) in PBS was added EZ-Link Sulfo-NHS-LC-Biotin at a ratio of ˜2:1 (biotin:TTR) (minimal biotinylation) and the solution was incubated at room temperature. After 1 hour, un-reacted biotin was removed by passing the sample over a fast (FPLC) desalting column (Superdex™ 75) equilibrated with PBS.
SPR measurements were performed at 25° C. using a Biacore T100 (GE Healthcare) instrument equilibrated in 1% DMSO in PBS as a running buffer. After pretreatment of the streptavidin-coated chip (Sensor Chop SA, Biacore), ˜4000 RU biotinylated TTR was immobilized on one channel leaving the second flow channel as a blank (streptavidin alone) control. For binding measurements, HTS hits were diluted in running buffer (1% DMSO/PBS) and different dilution series were flowed over the chip at 50 μL/min ([…], 600 s wash). A zero concentration sample was used as a negative control. The kinetic data was fitted to a one-to-one binding model using Biacore T100 evaluation software.

Fold decrease in binding affinity to TTR on attaching FITC to 4 [1]: ~3 fold
Compound: O=C(O)c1ccccc1Nc1cc(Cl)c(OCCOCCOCCNC(=S)Nc2ccc3c(c2)C(=O)OC32c3ccc(O)cc3Oc3cc(O)ccc32)c(Cl)c1 [Compound 5, 2-(3,5-dichloro-4-(2-(2-(2-(3-(3′,6′-dihydroxy-3-oxo-3H-spiro[isobenzofuran-1,9′-xanthene]-5-yl)thioureido)ethoxy)ethoxy)ethoxy)phenylamino)benzoic acid]

Inhibition of fibril formation at substoichiometric ligand (WT TTR; ligand 3.0 μM, TTR 3.6 μM, monitored over 5 days): > 75%
Compound: Cc1n[nH]c(C)c1CCc1nc2c3ccccc3[nH]c(=O)n2n1 [Compound 15]

FP Kapp (apparent binding constant) (TTR [4]): 0.231 μM and 0.231 (R^2 = 0.997) μM
Compound: O=C(O)c1ccc(-c2c(F)cccc2F)cc1 [Compound 1]

target residence time, fold lower than 7 [6]: ~40 ×
FP Kapp (apparent binding constant) (TTR [4]): 4.66 µM
Compound: O=C(O)Cc1ccccc1Nc1c(Cl)cccc1Cl [Diclofenac]

More lines, now with the values behind:

Compound: O=[N+]([O-])c1cc(O)c(O)c([N+](=O)[O-])c1 [3,5-dinitrocatechol]
Prevention of WT TTR-induced cytotoxicity [2]: poor inhibitor
Prevention of V1221 TTR-induced cytotoxicity [3]: poor inhibitor

Compound: O=C(O)c1cccnc1Nc1cccc(C(F)(F)F)c1 [Niflumic acid, niflumic acid]
Prevention of V1221 TTR-induced cytotoxicity [3]: relatively poor inhibitor

Compound: O=C(c1cc(O)c(O)c([N+](=O)[O-])c1)c1ccccc1F [Ro 41-0960]
Prevention of WT TTR-induced cytotoxicity [2]: completely prevented TTR-induced cytotoxicity
Prevention of V1221 TTR-induced cytotoxicity [3]: completely prevented TTR-induced cytotoxicity
Inhibition of fibril formation at substoichiometric ligand (WT TTR): > 75%

Compound: fluorescein isothiocyanate [FITC]
Change in FP signal upon addition of TTR (TTR [5]): no change in the FP signal

From US10278929B2, “Identification of stabilizers of multimeric proteins” (The Board of Trustees of the Leland Stanford Junior …, priority 2010, dated 2019)
